Key:
Assay type in all cases: cell-based
Mrgpra1 [1] = target: T1, Mrgpra1 (Mus musculus, UniProt Q91WW5); test: calcium imaging, […] DCA in Mrgpra1-HEK293T cells
T1 sequence (Q91WW5 1-304): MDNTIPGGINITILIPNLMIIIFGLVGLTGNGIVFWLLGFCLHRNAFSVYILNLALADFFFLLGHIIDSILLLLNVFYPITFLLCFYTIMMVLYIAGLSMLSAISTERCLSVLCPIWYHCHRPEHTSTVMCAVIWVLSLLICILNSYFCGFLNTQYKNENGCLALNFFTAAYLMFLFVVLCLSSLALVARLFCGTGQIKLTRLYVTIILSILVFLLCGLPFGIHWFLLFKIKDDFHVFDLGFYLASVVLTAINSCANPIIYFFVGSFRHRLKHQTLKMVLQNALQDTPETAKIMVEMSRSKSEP

Mrgpra1 [2] = target: T1, Mrgpra1; test: calcium imaging
Mrgprb2 = target: T2, Mrgprb2 (Mus musculus, UniProt Q3KNA1); test: calcium imaging
T2 sequence (Q3KNA1 1-338): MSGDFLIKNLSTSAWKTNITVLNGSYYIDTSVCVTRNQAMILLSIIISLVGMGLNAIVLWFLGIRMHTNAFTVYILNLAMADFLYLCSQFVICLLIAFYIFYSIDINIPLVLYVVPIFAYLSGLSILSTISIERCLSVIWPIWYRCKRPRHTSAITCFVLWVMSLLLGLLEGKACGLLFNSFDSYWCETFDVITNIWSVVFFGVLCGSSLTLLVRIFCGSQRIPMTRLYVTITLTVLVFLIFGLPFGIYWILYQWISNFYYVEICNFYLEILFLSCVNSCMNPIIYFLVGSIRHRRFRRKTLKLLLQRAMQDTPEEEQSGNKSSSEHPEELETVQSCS

EC50 (Mrgpra1 [2]) | EC50 (Mrgprb2) | Structure (SMILES) | calcium imaging, 100 μM DCA in Mrgpra1-HEK293T cells (weaker than LCA) (Mrgpra1 [1])
 |  | C[C@H](CCC(=O)O)[C@H]1CC[C@H]2[C@@H]3CC[C@@H]4C[C@H](O)CC[C@]4(C)[C@H]3C[C@H](O)[C@]12C [DCA, deoxycholic acid] | also elevated the fluorescence intensity in Mrgpra1-HEK293T, but to a lesser extent (Fig. 1B, 1C)
290 µM | 183 µM | C[C@H](CCC(=O)O)[C@H]1CC[C@H]2[C@@H]3CC[C@@H]4C[C@H](O)CC[C@]4(C)[C@H]3CC[C@]12C [LCA, 3α-hydroxy-5β-cholan-24-oic acid] | 
